Legend:
HIV-1 NC zinc fingers = conditions: isolated HIV-1 NC zinc fingers and intact HIV-1 virions; cited from earlier work
[1] = metabolic conversion of INO2 BA to INH2 BA by 855-2 cells; assay type: in vitro ADME; conditions: 855-2 cells; 120 μM INO2 BA, 37° C.; read-out: rate of reduction of the nitro to the amino end-product
Method: (§1) The cell metabolites of INO2 BA metabolism were identified. A suspension of 855-2 cells (6), 150×10^6 cells in ml of RPMI-1640 medium, was dosed with INO2 BA to a concentration of 120 μM, incubated at 37° C. for 18 hr, and then freeze-dried, extracted 3 times with EtOH (10 ml each time) for 30 min and centrifuged. The extract was rotary evaporated to dryness, redissolved in EtOH (3.0 ml), microfuged to remove small particles, and aliquots (200 μl) injected into HPLC. In control experiments, instead of incubating the drug-dosed cell suspension it was immediately frozen, freeze-dried and extracted. HPLC analyses were performed essentially as reported earlier, except the pH of the buffers was 4.3. Buki et al., FEBS Lett. 290:181-185 (1991). Upon sample injection the gradient started from 100%A to 100%B in 30 min, to 50%B/50%C in 15 min, to 100%C in 3 min. Retention times of synthetic standards were: 4-iodo-3-hydroxylaminobenzamide 18.7 min; 4-iodo-3-aminobenzamide ("INH2 BA") 24.7 min; INO2 BA 34.5 min; INOBA 36.5 min and 6,6'-diiodo-3,3'-dicarbamoylazoxybenzene 46.9 min.

855-2 cells = assay: as above; assay type: in vitro ADME; conditions: 120 μM INO2 BA, 18 hr, 37° C.
Method: as §1

HT 144 = assay: cytotoxicity of INO2 BA with and without BSO, HT 144; assay type: cell-based; conditions: Homo sapiens
Method: (§2) The concentration of BSO was 1 mM for all cell lines except HT 144, where the concentration was 0.25 mM. Cells were seeded in the recommended growth medium at a density of 1.5×10^4 cell/cm^2 into 2 cm^2 wells. Drugs were added simultaneously 4 hours after seeding, and incubation was continued for 48 hours at 37° C. in a 5% CO2 atmosphere. For assessment of drug effects cells were detached by trypsinization and counted in a hemacytometer.
(§3) Cell lines Nos. 1-4 were obtained from Dr. C. Benz, University of California, San Francisco. MDA 468 and MCF-7 human mammary cancer lines, MCF-7-B-ADR drug-resistant mammary cancer line, Du 145 drug-resistant human prostate cancer line, HT 144 human melanoma cell line, Hep-G2 human hepatocellular carcinoma line, and PC-12 rat pheochromocytoma line were obtained from the University of California Cell Culture Facility.

CEM-4 = assay: cytotoxicity of INO2 BA with and without BSO, CEM-4; assay type: cell-based; conditions: Homo sapiens
Method: as §2, §3

U 937 = assay: cytotoxicity of INO2 BA with and without BSO, U 937; assay type: cell-based; conditions: Homo sapiens, INO2 BA alone, 48 hours
Method: as §2, §3

[2] = tested on: SIV-infected CEM ×174 cells; assay: viability of SIV-infected CEM ×174 cells, tetrazolium (MTT) assay; assay type: cell-based, human; conditions: day 10
Description: In both (A) and (B) the ordinate represents cell viability on day 10 of the assay and the abscissa represents the concentration of INO2 BA in the absence of BSO (FIG. 4A), and in the presence of BSO (FIG. 4B).
CEM ×174 cells (3×10^5 /ml) were infected with 3.75 TCID50 /ml (50% tissue culture infectious dosage per ml of cell suspension) stock solution of SIVmac239 or virus isolates from SIVmac239-infected rhesus macaques on day 0. Uniform infection of cells was ensured by the infection of one cell population only per virus preparation. Three days post-infection, the cells were distributed (500 μl/well) into individual wells of a 24-well plate. Fresh medium containing INO2 BA concentrations ranging from 0 to 300 μM and/or BSO concentrations ranging from 0 to 0.25 mM were added to establish final 1-ml reaction volumes, and the cultures were further incubated for 4 days. […] Cell viability and virus titers in the supernatant were determined on day 10 (3 days after the addition of new cells) by the tetrazolium (MTT) method of Hansen et al., J. Immunol. […]
The viability of infected and uninfected cell cultures was determined by the method of Hansen et al., J. Immunol. […] Following overnight incubation at 37° C., optical absorbance were measured at 570 nm using a microtiter plate reader (Molecular Devices Corp., Sunnyvale, Calif.).

[3] = tested on: SIV 23686 (AZT-resistant); assay: AZT-resistant SIV propagation (syncytia formation), SIV 23686; assay type: cell-based; conditions: for Syncytia: BSO 0
Method: (§4) CEM × 174 (3 × 10^5 /ml) were infected with equal doses o
(§5) SIVmac239 or virus isolates from SIVmac239infected rhesus macaques (MMU
(§6) 23686, 22803). Three days postinfection, INO2 BA concentrations
(§7) ranging from 0 to 300 μM with or without BSO were added, and incubated
(§8) for an additional 3 days. Cell cultures were then examined for syncytia
(§9) formation. The number of syncytia in cell cultures was counted in
(§10) arbitration fields under 40× magnification and scored as follows: […]

[4] = tested on: SIV 22803 (AZT-resistant); assay: AZT-resistant SIV propagation (syncytia formation), SIV 22803; assay type: cell-based; conditions: for Syncytia: BSO 0
Method: as §4, §5, §6, §7, §8, §9, §10

[5] = tested on: HIV in intact human macrophages; conditions: Kun et al., Abstract 422A; cited from earlier work

## NC(=O)c1cccc(N=O)c1 [NOBA, 3-nitrosobenzamide]
HIV-1 NC zinc fingers
  zinc ejection: eject zinc

## NC(=O)c1ccc(I)c([N+](=O)[O-])c1 [INO2 BA, 4-iodo-3-nitrobenzamide]
[1]
  metabolised at 18 h, 120 µM: 2.2 ± 0.2%
855-2 cells
  identified metabolite: the only identified metabolite was INH2 BA
HT 144; HT-144, 48 h, read-out: LD100
  IC100: 200 µM
HT 144; HT-144, INO2 BA alone, 48 hours, read-out: I50
  IC50: 100 µM
CEM-4; CEM-4, 48 h, read-out: LD100
  IC100: 196 µM
CEM-4; CEM-4, INO2 BA alone, 48 hours, read-out: I50
  IC50: 80 µM
U 937; read-out: I50
  IC50: 65 µM
U 937; read-out: LD100
  IC100: 150 µM
[2]
  apparent cell viability: protected
[3]; INO2 BA 25 μM
  Syncytia: ++ (10-20)
[3]; INO2 BA 50 μM
  Syncytia: ++ (10-20)
[3]; INO2 BA 100 μM
  Syncytia: ++ (10-20)
[3]; INO2 BA 200 μM
  Syncytia: + (1-9)
[3]; INO2 BA 300 μM
  Syncytia: - (0)
[3]; Simian immunodeficiency virus, 72 h, read-out: INO2 BA concentration abolishing cell fusion (syncytia)
  IC100: > 200 µM
[3]; with 0.01 mM BSO
  inhibitory concentration of INO2 BA (syncytia): 50 µM
[4]; INO2 BA 25 μM
  Syncytia: ++ (10-20)
[4]; INO2 BA 50 μM
  Syncytia: ++ (10-20)
[4]; INO2 BA 100 μM
  Syncytia: ++ (10-20)
[4]; INO2 BA 200 μM
  Syncytia: - (0)
[4]; INO2 BA 300 μM
  Syncytia: - (0)
[4]; Simian immunodeficiency virus, 72 h, read-out: INO2 BA concentration abrogating cell fusion (syncytia)
  IC100: > 100 µM
[4]; with 0.05 mM BSO
  syncytia-blocking concentration of INO2 BA: 25 µM
[5]
  inhibition of HIV replication: readily inhibited

From patent US5877185A, “Synergistic compositions useful as anti-tumor agents” (priority 1995, dated 1999)
